The target in test [1] is T1, isolated recombinant JAK2 kinase domain (Homo sapiens, UniProt O60674).
T1 construct: isolated recombinant JAK1 and JAK2 kinase domain
Kind of test: JAK enzyme assay, JAK2 kinase domain (Caliper LabChip). The format is biochemical. As to conditions: 0.2 nM JAK2, ATP 25 μM, Morrison tight binding model. A digest of the protocol:
(§1)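 Ki values were obtained by Morrison tight-binding analysis with ATP-competitive correction, Ki=Ki,app/(1+[ATP]/Km,app). Phosphorylated versus total fluorescent JAK3-derived peptide was quantified on a Caliper LabChip. Kinase reactions with the isolated recombinant domains ran 30 min at 22 °C before EDTA quench (50 mM final).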

Test [2] concerns the target T2, isolated recombinant JAK1 kinase domain (Homo sapiens, UniProt P23458).
T2 construct: isolated recombinant JAK1 and JAK2 kinase domain
Kind of test: JAK enzyme assay, JAK1 kinase domain (Caliper LabChip). As to conditions: 1.5 nM JAK1, ATP 25 μM, Morrison tight binding model. It counts as biochemical. A digest of the protocol: as §1

The subject of test [3] is JAK1-dependent STAT6 phosphorylation downstream of IL-13 stimulation in BEAS-2B cells. Description: JAK1 pathway assay in cell lines: IL-13 p-STAT6 BEAS-2B. It counts as cell-based. As to conditions: BEAS-2B human bronchial epithelial cells, 1 hr compound, IL-13 15 min, MSD readout. A digest of the protocol: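 Phospho-STAT6 read by MSD electrochemiluminescence in lysates of BEAS-2B cells kept in complete growth medium. Cells were pretreated 1 hr at 37 °C with compound (0.2% DMSO final) and stimulated 15 min with IL-13 at its EC90; EC50 is the concentration halving signal versus DMSO.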

SMILES strings stand for the structures.

T1 sequence (O60674 849-1124 limits assumed): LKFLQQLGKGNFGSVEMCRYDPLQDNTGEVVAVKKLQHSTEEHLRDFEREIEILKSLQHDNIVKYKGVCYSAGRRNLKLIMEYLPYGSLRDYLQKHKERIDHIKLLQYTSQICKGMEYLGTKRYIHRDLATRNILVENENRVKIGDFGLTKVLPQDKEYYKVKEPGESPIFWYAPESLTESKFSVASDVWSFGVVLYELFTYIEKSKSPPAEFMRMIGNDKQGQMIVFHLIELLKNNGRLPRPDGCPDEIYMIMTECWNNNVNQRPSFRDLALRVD
T2 sequence (P23458 875-1153 limits assumed): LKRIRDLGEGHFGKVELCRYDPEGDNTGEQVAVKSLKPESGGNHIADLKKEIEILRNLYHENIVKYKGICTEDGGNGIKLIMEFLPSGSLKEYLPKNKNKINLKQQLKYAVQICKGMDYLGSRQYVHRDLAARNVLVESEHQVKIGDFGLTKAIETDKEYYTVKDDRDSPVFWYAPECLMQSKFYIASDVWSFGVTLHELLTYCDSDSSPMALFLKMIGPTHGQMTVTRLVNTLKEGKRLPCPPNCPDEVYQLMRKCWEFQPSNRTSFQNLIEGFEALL

The Ki is the equilibrium dissociation constant of an inhibitor or competing ligand from its target. As usually defined, the EC50 is the concentration needed to bring the measured effect to its halfway point. In the case of `N#CCC1(n2cc(C(F)(F)F)cn2)CN(c2cccn3nc(Nc4cnn(CC(=O)N5CCC(N6CCOCC6)CC5)c4)nc23)C1` [Example 96, 2-[1-[2-[[1-[2-(4-morpholino-1-piperidyl)-2-oxo-ethyl]pyrazol-4-yl]amino]-[1,2,4]triazolo[1,5-a]pyridin-8-yl]-3-[4-(trifluoromethyl)pyrazol-1-yl]azetidin-3-yl]acetonitrile], the Ki was determined as 800 pM in test [1] and 300 pM in test [2]. In addition, the EC50 in test [3] turned out to be 28000 pM.

`CCCc1cnn(C2(CC#N)CN(c3cccn4nc(Nc5cnn(CC(=O)N6CCN(C)CC6)c5)nc34)C2)c1` [Example 22]: the figures for the Ki in test [1] and in test [2] were 3000 pM and 1000 pM, respectively. Also, the EC50 in test [3] worked out at 36000 pM.

`N#CCC1(n2cc(C(F)(F)F)cn2)CN(c2cccn3nc(Nc4cnn(CC(=O)N5CCN(C6CCOCC6)CC5)c4)nc23)C1` [Example 98, 2-[1-[2-[[1-[2-oxo-2-(4-tetrahydropyran-4-ylpiperazin-1-yl)ethyl]pyrazol-4-yl]amino]-[1,2,4]triazolo[1,5-a]pyridin-8-yl]-3-[4-(trifluoromethyl)pyrazol-1-yl]azetidin-3-yl]acetonitrile]: the Ki turned out to be 800 pM in test [1] and 500 pM in test [2]. In test [3], this compound displayed an EC50 of 32000 pM.

With `CN1CCN(C(=O)Cn2cc(Nc3nc4c(N5CC(CC#N)(n6cc(-c7ccccc7F)cn6)C5)cccn4n3)cn2)CC1` [Example 77, 2-[3-[4-(2-fluorophenyl)pyrazol-1-yl]-1-[2-[[1-[2-(4-methylpiperazin-1-yl)-2-oxo-ethyl]pyrazol-4-yl]amino]-[1,2,4]triazolo[1,5-a]pyridin-8-yl]azetidin-3-yl]acetonitrile], the Ki came to 600 pM in test [1] and 200 pM in test [2]. For the same compound, the concentration for a half-maximal effect (EC50) in test [3] was found to be 17000 pM.

Regarding `N#CCC1(n2cc(Br)cn2)CN(c2cccn3nc(Nc4cn[nH]c4)nc23)C1` [Example 128, 2-[3-(4-bromopyrazol-1-yl)-1-[2-(1H-pyrazol-4-ylamino)-[1,2,4]triazolo[1,5-a]pyridin-8-yl]azetidin-3-yl]acetonitrile], the Ki in test [1] and in test [2] was 200 pM throughout. Also, the midpoint of the response in test [3], the EC50, lay at 8000 pM.

`CC(C)Sc1ccc(C2(CC#N)CN(c3cccn4nc(Nc5cnn(CC(=O)N6CCN(C)CC6)c5)nc34)C2)cc1` [Example 16, 2-[3-(4-isopropylsulfanylphenyl)-1-[2-[[1-[2-(4-methylpiperazin-1-yl)-2-oxo-ethyl]pyrazol-4-yl]amino]-[1,2,4]triazolo[1,5-a]pyridin-8-yl]azetidin-3-yl]acetonitrile]: the results for the Ki in test [1] and in test [2] were 3700 pM and 600 pM, respectively. The same compound showed a 50% effective concentration (EC50) in test [3] of 19000 pM.

Regarding `N#CCC1(n2cc(C3CC3)cn2)CN(c2cccn3nc(Nc4cn[nH]c4)nc23)C1` [Example 140, 2-[3-(4-cyclopropylpyrazol-1-yl)-1-[2-(1H-pyrazol-4-ylamino)-[1,2,4]triazolo[1,5-a]pyridin-8-yl]azetidin-3-yl]acetonitrile], the figures for the inhibition constant (Ki) in test [1] and in test [2] were 200 pM and 100 pM, respectively. Further, the midpoint of the response in test [3], the EC50, lay at 11000 pM.

As to `CCc1cnn(C2(CC#N)CN(c3cccn4nc(Nc5cnn(CC(=O)N6CCC(N(C)CC(C)(C)C#N)CC6)c5)nc34)C2)c1` [Example 52, 3-[[1-[2-[4-[[8-[3-(cyanomethyl)-3-(4-ethylpyrazol-1-yl)azetidin-1-yl]-[1,2,4]triazolo[1,5-a]pyridin-2-yl]amino]pyrazol-1-yl]acetyl]-4-piperidyl]-methyl-amino]-2,2-dimethyl-propanenitrile], the Ki in test [1] came out at 500 pM; in test [2], 200 pM. In test [3], this compound registered an EC50 of 13000 pM.

With `CCc1ccc(C2(CC#N)CN(c3cccn4nc(Nc5cnn(CC(=O)N6CCN(C)CC6)c5)nc34)C2)cc1` [Example 60, 2-[3-(4-ethylphenyl)-1-[2-[[1-[2-(4-methylpiperazin-1-yl)-2-oxo-ethyl]pyrazol-4-yl]amino]-[1,2,4]triazolo[1,5-a]pyridin-8-yl]azetidin-3-yl]acetonitrile], the Ki in test [1] came to 2900 pM; in test [2], 400 pM. This compound had a 50% effective concentration (EC50) in test [3] of 19000 pM.

The record behind these values is US20230242530A1, “8-(AZETIDIN-1-YL)-[1,2,4]TRIAZOLO[1,5-A]PYRIDINYL COMPOUNDS, COMPOSITIONS AND METHODS OF USE THEREOF” (Genentech, Inc., priority 2016, published 2023).
